Values joined by “and” are separate entries in the source; they are usually repeats but may differ in a detail not shown here. Equal values may be shown once. Read-outs that look alike come from different tables or passages of the source.
Tests used:
Helicobacter pylori [1] = assay: MIC against Helicobacter pylori by two fold serial dilution in growth medium; format: cell-based
Experimental: (§1) Solutions of metal salts were prepared by dilution of the metal salt, optionally together with the ligand, in ultra-high-purity water. The pH values were adjusted to 7 with concentrated sodium hydroxide. The solutions were γ irradiated for 20 to 30 minutes for sterilisation, and then diluted ten fold in the bacterial growth medium to be used.
(§2) A gradient of concentration was obtained by two fold serial dilutions of the medium. The concentrations of metals were analysed by inductively coupled plasma spectrometry. Each dilution was inoculated with the different bacteria to be tested, by multi-point inoculating on the agar media, or suspending in the broth media.
The presence or absence of bacterial growth was reported within the concentration gradient and the minimum concentration of complex in the medium that inhibits totally the bacterial growth (MIC) was determined. The growth on an agar plate was detected by the presence of colonies, and by turbidity in the broth media. The bacteria were identified by the Gram morphology test. Helicobacter pylori growth was also confirmed by biochemical test on the catalase, urease and oxidase activity.

other bacteria = assay: MIC against other bacteria; format: cell-based; details: 32 mg/l = estimate limit between active and non-active metals
Helicobacter pylori [2] = tested on: Helicobacter pylori
Experimental: as §1, §2
(§3) Media were incubated for Helicobacter pylori in a microaerobic atmosphere (gas jar containing a CampyGen® pack, 5% O2-10% CO2-85% N2 by volume) with constant shaking (orbital shaker, 140 rpm) at 37° C. for five days.
(§4) The presence or absence of bacterial growth was reported within the concentration gradient and the minimum concentration of complex in the medium that inhibits totally the bacterial growth (MIC) was determined. The growth on an agar plate was detected by the presence of colonies, and by turbidity in the broth media. […] Helicobacter pylori growth was also confirmed by biochemical test on the catalase, urease and oxidase activity.

Helicobacter pylori [3] = assay: Inhibition of Helicobacter pylori growth over time in the STH medium (FIG. 1, cfu/ml against time); format: cell-based; details: cobalt 2.00 ppm
Text: FIG. 1 is a graph showing the inhibition of H. pylori growth by cobalt (cobaltous chloride) in the STH medium.
I50=inhibition of 50% of the Helicobacter pylori inoculated by cobaltous chloride. Concentration of cobalt in the medium was 2.00 ppm.

Enterococcus faecium = assay: MIC against Enterococcus faecium; format: cell-based; details: Mueller-Hinton agar with 2% horse serum and isosensitest agar with 5% horse blood; several strains
Enterococcus faecalis = assay: MIC against Enterococcus faecalis; format: cell-based
[4] = tested on: Staphylococcus (aureus or Oxford Staph); details: extrapolated from survival rates; protein broth then phosphate-buffered saline; Zhao et al 1998; cited from earlier work
Pseudomonas aeruginosa [5] = assay: MIC against Pseudomonas aeruginosa; format: cell-based
[6] = Tolerance study in patients with H. pylori infection; format: in vivo, human; details: six patients; 20 mg/day cobalt (10 mg b.d) for two weeks; oral capsules or solution
Experimental: In a tolerance study, six patients with H. pylori infection ingested a low dose of 20 mg/day cobalt, as cobalt chloride (10 mg b.d), for two weeks. […] In one patient the cobalt was taken also with a proton pump inhibitor (Lansoprazole) while the remaining 5 took cobalt alone as capsules (4 patients) or a solution (1 patient). 3 of these patients had gastritis and/or duodenitis with a duodenal ulcer also in one of these three. The other 3 had oesophagitis and/or normal stomach and duodenum.

Echerichia coli = assay: MIC against Echerichia coli; format: cell-based
Staphylococcus aureus = assay: MIC against Staphylococcus aureus; format: cell-based
Klebsiella = assay: MIC against Klebsiella; format: cell-based
E. coli = details: extrapolated from survival rates; protein broth then phosphate-buffered saline; Zhao et al 1998; cited from earlier work
[7] = tested on: Coagulase negative staphylococcus; assay: MIC against coagulase negative staphylococcus; format: cell-based; details: Mueller-Hinton agar with 2% horse serum and isosensitest agar with 5% horse blood; several strains
Pseudomonas aeruginosa [8] = details: extrapolated from survival rates; protein broth then phosphate-buffered saline; Zhao et al 1998; cited from earlier work
Helicobacter pylori [9] = assay: microbe, parasite or virus in culture; details: read-out: MIC of amoxycillin (no cobalt)
Experimental: as §1, §2, §3, §4

H. pylori = details: cited from earlier work
[10] = Mueller-Hinton agar with 2% horse serum and isosensitest agar with 5% horse blood, several strains

SMILES: [Cl-].[Cl-].[Co+2] [Co chloride, cobalt (II) chloride]
- Average Selectivity Ratio (Helicobacter pylori [1]; (Sum of MIC values against all bacteria except H. pylori ÷ No. of MIC values) ÷ MIC value for H. pylori): 434
- MIC (Helicobacter pylori [1]; STH broth, NCTC 11637 and seven clinical isolates): 0.03 to 0.6 µg/mL
- MIC (mg/l), median (Helicobacter pylori [1]; STH broth, NCTC 11637 and seven clinical isolates, median): 0.06 mg/L
- Mean ratio pH 4:pH 7, first value (Helicobacter pylori [1]; Strain 1 (Chloride: against first pH 7 value)): 0.5
- MIC, Strain 1 (pH 4) (Helicobacter pylori [1]; Strain 1, pH 4): 0.015
- MIC, Strain 1 (pH 7) (Helicobacter pylori [1]; Strain 1, pH 7 (first value where two are given)): 0.03
- MIC, Strain 1 (pH 7), second value (Helicobacter pylori [1]; Strain 1, pH 7, second of x/y): 0.125
- Mean ratio pH 4:pH 7, second value (Helicobacter pylori [1]; Strain 2 (Chloride: Strain 1 against second pH 7 value)): 0.12
- MIC, H. pylori, range in brackets (Helicobacter pylori [1]; Table 4): (<0.03-0.125)
- MIC, H. pylori (Helicobacter pylori [1]; Table 4, main value): 0.06 µg/mL
- activity against H. pylori at pH 4 relative to pH 7 (Helicobacter pylori [1]; Table 5): about 10 fold
- kind of action against H. pylori (Helicobacter pylori [1]; found by measuring the MIC): not only bacteriostatic (i.e. inhibitory of growth), but also bactericidal
- minimum inhibitory concentration (MIC) (Helicobacter pylori [1]; in vitro, Co^2+ as cobalt chloride): 0.06 µg/mL
- MIC, pH 4-7 (Helicobacter pylori [1]; pH 4-7: pH of the media changes during the experiment from acidic start): 0.03-0.4 mg/l
- MIC, pH 7 (Helicobacter pylori [1]; pH 7): 0.06-0.4 mg/l
- activity against the H. pylori strain deprived of its urease enzyme (Helicobacter pylori [1]; urease-deprived strain): active
- activity (MIC) against other bacteria (other bacteria): > 32 µg/mL
- growth in the medium (Helicobacter pylori [2]; Co 0.0015 mg/l, Ax 0 mg/l): +
- growth in the medium (Helicobacter pylori [2]; Co 0.004 mg/l, Ax 0 mg/l): +
- growth in the medium (Helicobacter pylori [2]; Co 0.008 mg/l, Ax 0 mg/l): +
- growth in the medium (Helicobacter pylori [2]; Co 0.030 mg/l, Ax 0 mg/l): −
- growth in the medium (Helicobacter pylori [2]; Co 0.060 mg/l, Ax 0 mg/l): −
- growth in the medium (Helicobacter pylori [2]; Co 0.120 mg/l, Ax 0 mg/l): −
- MIC of cobalt (no amoxycillin) (Helicobacter pylori [2]; no amoxycillin): MIC of cobalt (no amoxycillin): 0.030 mg/l
- time to I50 (inhibition of 50% of the Helicobacter pylori inoculated) (Helicobacter pylori [3]): 5 h
- time to total inhibition (Helicobacter pylori [3]): 8 h
- MIC (Enterococcus faecium): >32 µg/mL
- MIC (Enterococcus faecalis; [10]): >32 µg/mL
- MIC, Ent faecalis (Enterococcus faecalis; Table 4): > 32 µg/mL
- MIC, Staphylococcus (aureus or Oxford Staph) (footnote a) [4]: 22.97^a
- MIC (Pseudomonas aeruginosa [5]; [10]): >32 µg/mL
- MIC, Pseudomonas aeruginosa (Pseudomonas aeruginosa [5]; Table 4): > 32 µg/mL
- adverse effects [6]: no reported adverse effects
- MIC (Echerichia coli; [10]): >32 µg/mL
- MIC, E. coli (Echerichia coli; Table 4): > 32 µg/mL
- MIC (Staphylococcus aureus; [10]): >32 µg/mL
- MIC, Staphylococcus (aureus or Oxford Staph) (Staphylococcus aureus; Table 4): > 32 µg/mL
- MIC (Klebsiella; [10]): >32 µg/mL
- MIC, Klebsiella (Klebsiella; Table 4): > 32 µg/mL
- MIC, E. coli (footnote a) (E. coli): 22.97^a
- MIC [7]: >32 µg/mL
- MIC, Pseudomonas aeruginosa (footnote a) (Pseudomonas aeruginosa [8]): 2.3^a

SMILES: CC1(C)S[C@@H]2[C@H](NC(=O)[C@H](N)c3ccc(O)cc3)C(=O)N2[C@H]1C(=O)O [amoxycillin, reference compound]
- MIC (Helicobacter pylori [9]): 0.06 µg/mL
- growth in the medium (Helicobacter pylori [2]; Co 0 mg/l, Ax 0.002 mg/l): +
- growth in the medium (Helicobacter pylori [2]; Co 0 mg/l, Ax 0.004 mg/l): +
- growth in the medium (Helicobacter pylori [2]; Co 0 mg/l, Ax 0.008 mg/l): +
- growth in the medium (Helicobacter pylori [2]; Co 0 mg/l, Ax 0.015 mg/l): +
- growth in the medium (Helicobacter pylori [2]; Co 0 mg/l, Ax 0.03 mg/l): +
- growth in the medium (Helicobacter pylori [2]; Co 0 mg/l, Ax 0.06 mg/l): −
- MIC, strains that repeatedly showed higher MIC (H. pylori; H. pylori strains lacking one penicillin-binding protein): 0.25 µg/mL and 0.5 µg/mL
- MIC, usual (H. pylori; H. pylori, usual strains): ≤ 0.03 µg/mL
